Test results: patent US4550186A, “Binuclear copper (II) carboxylates formed from amine-carboxyboranes” (Duke University, priority 1983, dated 1985)

Tests used:
Holtzman male rats = experiment: Plasma lipoprotein fractions; assay type: in vivo, rat; conditions: 14 days 10 mg/kg/day orally
Method: […] On day 14, blood was collected from the abdominal aorta. Serum was separated from whole blood by centrifugation at 3500 rpm. Aliquots (3 ml) were separated by density gradient ultracentrifugation according to the method of Hatch and Lees [Adv. Lipid Res., 6, 33 (1968)] and Havel et al [J. Clin. Invest., 34, 1395 (1955)] into the chylomicrons,very low density lipoproteins, high density lipoproteins and low density lipoproteins. Each of the fractions was analyzed for cholesterol, triglyceride, neutral lipids, phospholipids and protein levels.
Data are expressed in the Table 2-7 as percent of control ± the standard deviation. The probable significant level (P) between each test group and the control group was determined by the Student's "t" test.

[1] = test system: CF1 male mice on atherogenic diet; experiment: Testing in atherogenic mice; assay type: in vivo, mouse; conditions: 12 days
Method: CF1 male mice (~25 g) were placed on a commercial diet (the U.S. Biochemical Corporation Basel Atherogenic Test Diet) which contained butterfat (400 g), celufil (cellulose; 60 g), cholesterol (53 g), choline dihydrogen citrate (4 g), salt mixture oil (Wesson; 40 g), sodium cholate (20 g), sucrose (223 g), vitamin free casein (200 g) and total vitamin supplement for 10 days. After the cholesterol and triglyceride levels were assayed and observed to be elevated, the mice were administered test drugs at 10 mg/kg/day intraperitoneally for an additional 12-day period. Serum cholesterol and triglyceride levels were measured after 12 days of administration of the drugs.

thymidylate synthetase = thymidylate synthetase (Mus musculus, UniProt P07607); experiment: In vitro thymidylate synthetase activity; assay type: biochemical; conditions: 0.25 to 1.0 mM
Method: CF1 male mice (~30 g) were implanted with 2×10^6 Ehrlich ascites tumor cells, intraperitoneally on Day 0. Compound I was suspended by homogenation in 0.05% polysorbate.80-water and administered intraperitoneally at 10 and 20 mg/kg for 9 days to determine its effectiveness for inhibition of tumor growth. Mice were sacrificed on Day 10, and the ascites fluid was collected from the peritoneal cavity. The volume and ascrit (packed cell volume) were determined for each animal and the percent inhibition of tumor growth was calculated. For the metabolic studies, mice were treated on Days 8 and 9 with 10 mg/kg of Compound I, intraperitoneally. […]
Carbamyl phosphate synthetase activity was determined using the reaction medium of Kalman et al [Am. […] Citrulline formed from ornithine was measured at 490 nm by the method of Archibald [J. Biol. Chem., 156, 121 (1944)]. […] The ^14 CO2 generated in 15 min was trapped in 1M KOH and counted. Thymidylate synthetase activity was determined using a post-mitochondrial supernatant (9000 g×10 min) and 5 μCi of 5-^3 H-deoxyuridine monophosphate (14 Ci/mmol) according to the method of Kampf et al [ J. Med. Chem., 19, 903 (1976)]. ^14 C-Formate incorporation into purines was determined by the method of Spassova et al [Biochem. Pharmacol., 25, 923 (1976)] using 0.5 μCi of ^14 C-formic acid (52.0 mCi/mmol). […] The Rf value for xanthine monophosphate was scraped and counted. […]

Chain of thymidylate synthetase (P07607 whole entry): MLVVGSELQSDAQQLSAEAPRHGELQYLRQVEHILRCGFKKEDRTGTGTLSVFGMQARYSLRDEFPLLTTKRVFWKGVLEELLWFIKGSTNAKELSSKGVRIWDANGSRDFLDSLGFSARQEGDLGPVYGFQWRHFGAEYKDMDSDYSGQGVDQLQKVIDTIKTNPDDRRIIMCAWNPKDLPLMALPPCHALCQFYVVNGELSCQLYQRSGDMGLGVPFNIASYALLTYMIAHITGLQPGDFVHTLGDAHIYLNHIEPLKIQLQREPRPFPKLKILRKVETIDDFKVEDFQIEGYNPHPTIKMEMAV

{Cu[(CH3)3 N.BH2 CO2 ]2.(CH3)3 N.BH2 COOH} [Compound I]
Cholesterol (Holtzman male rats; rat serum Chylomicrons): 88 ± 6 Percent Control | Neutral Lipids (Holtzman male rats; rat serum Chylomicrons): 67 ± 7 Percent Control | Phospholipids (Holtzman male rats; rat serum Chylomicrons): 96 ± 6 Percent Control | Protein (Holtzman male rats; rat serum Chylomicrons): 99 ± 7 Percent Control | Triglyceride (Holtzman male rats; rat serum Chylomicrons): 58 ± 5 Percent Control | Cholesterol (Holtzman male rats; rat serum HDL): 64 ± 5 Percent Control | Neutral Lipids (Holtzman male rats; rat serum HDL): 72 ± 8 Percent Control | Phospholipids (Holtzman male rats; rat serum HDL): 86 ± 7 Percent Control | Protein (Holtzman male rats; rat serum HDL): 108 ± 8 Percent Control | Triglyceride (Holtzman male rats; rat serum HDL): 31 ± 5 Percent Control | Cholesterol (Holtzman male rats; rat serum LDL): 68 ± 6 Percent Control | Neutral Lipids (Holtzman male rats; rat serum LDL): 78 ± 7 Percent Control | Phospholipids (Holtzman male rats; rat serum LDL): 105 ± 6 Percent Control | Protein (Holtzman male rats; rat serum LDL): 101 ± 6 Percent Control | Triglyceride (Holtzman male rats; rat serum LDL): 70 ± 6 Percent Control | Cholesterol (Holtzman male rats; rat serum VLDL): 32 ± 3 Percent Control | Neutral Lipids (Holtzman male rats; rat serum VLDL): 62 ± 5 Percent Control | Phospholipids (Holtzman male rats; rat serum VLDL): 100 ± 7 Percent Control | Protein (Holtzman male rats; rat serum VLDL): 96 ± 7 Percent Control | Triglyceride (Holtzman male rats; rat serum VLDL): 43 ± 4 Percent Control | serum cholesterol level after drug administration ([1]; hyperlipidemic induced mice (354 mg % before)): 148 mg % | serum cholesterol levels reduced ([1]; hyperlipidemic induced mice, 10 mg/kg/day i.p.): 59% | serum triglyceride levels lowered ([1]; hyperlipidemic mice, 10 mg/kg/day i.p.): 67% | thymidylate synthetase inhibition (thymidylate synthetase): not inhibited
